Experiment: GHS categories as the set defines them, by LD50: 1 up to 5, 2 up to 50, 3 up to 300, 4 up to 2000, 5 above 2000 mg/kg
Details: rat; in vivo; po

| SMILES | GHS category |
| --- | --- |
| CCOc1ccc(C2(C(=O)OC(C#N)c3cccc(Oc4ccccc4)c3)CC2(Cl)Cl)cc1 (stereo not given) | 5 |
| COc1ccc(C(=O)NCc2ccc(OCCN(C)C)cc2)cc1OC | 5 |
| COc1cc2nc(N3CCCC(N(C)Cc4ccc5c(c4)OCO5)C3)nc(N)c2cc1OC (stereo not given) | 4 |
| CCN1CCN(C(=O)N[C@@H](C(=O)N[C@]2(OC)C(=O)N3C(C(=O)O)=C(CSc4nnnn4C)CS[C@@H]32)[C@H](C)O)C(=O)C1=O | 5 |
| N[C@@H](CSSC[C@H](N)C(=O)O)C(=O)O | 5 |
| COc1cc(-c2cc(OC)cc(C(C)(C)C)c2O)c(O)c(C(C)(C)C)c1 | 5 |
| CCC(=O)OCCCc1ccccc1 | 5 |
| CCCCCCCCOC(=O)c1ccc(C(=O)OCCCCCCCC)cc1 | 5 |
| C=CC(=O)OCCCOCC(C)(C)COCCCOC(=O)C=C | 5 |
| COc1cc(OC)nc(N=C(O)NS(=O)(=O)N(C)S(C)(=O)=O)n1 | 5 |
| CCCN(CC)CC1COC2(CCC(C(C)(C)C)CC2)O1 (stereo not given) | 4 |
| C=CC(C)(O)CCCC(C)CCCC(C)CCCC(C)C (stereo not given) | 5 |
| COc1ccc2c(c1)CCN(c1ccccc1)C2c1ccc(Br)cc1 (stereo not given) | 4 |
| Clc1cc(Cl)c(OCC#CI)cc1Cl | 5 |
| CCOc1ccccc1NC(=O)C(=O)Nc1ccccc1CC | 5 |
| CC(=O)OCC(=O)C1(O)C(O)CC2C3CCC4=CC(=O)C=CC4(C)C3=CCC21C (stereo not given) | 5 |
| Cc1cccc2ncc(C(=O)Nc3ccccc3)c(=O)n12 | 3 |
| CCCCCCCCCCCCCCCC(=O)OC[C@H](O)[C@H]1OC(=O)C(O)=C1O | 5 |
| OB(O)c1cc(F)c(F)c(F)c1 | 4 |
| COc1ccc(-c2cc(=O)c3c(OCCO)cc(O[C@@H]4O[C@H](CO[C@@H]5O[C@@H](C)[C@H](O)[C@@H](O)[C@H]5O)[C@@H](O)[C@H](O)[C@H]4O)cc3o2)cc1O | 5 |

| SMILES | GHS category |
| --- | --- |
| Cc1nn(-c2ccc3cc(-c4ccccc4)c(=O)oc3c2)nc1-c1ccccc1 | 5 |
| COc1ccc2c(c1)CCN(c1ccccc1)C2c1ccc(Cl)cc1 (stereo not given) | 4 |
| CCCCC(=O)O[C@]1(C(=O)CO)[C@H](C)C[C@H]2[C@@H]3CCC4=CC(=O)C=C[C@]4(C)[C@@]3(F)[C@@H](O)C[C@@]21C | 5 |
| O=C(NC(=O)c1c(F)cccc1F)Nc1cc(Cl)c(F)c(Cl)c1F | 5 |
| COc1ccc2c(c1)CCN(c1ccccc1)C2c1ccccc1OC (stereo not given) | 4 |
| COCCOc1ccccc1S(=O)(=O)N=C(O)N=c1nc(OC)[nH]c(OC)n1 | 5 |
| NC[C@H]1O[C@H](O[C@H]2[C@H](O)[C@@H](O[C@H]3O[C@H](CO)[C@@H](O)[C@H](N)[C@H]3O)[C@H](N)C[C@@H]2N)[C@H](O)[C@@H](O)[C@@H]1O | 5 |
| CCCCCCCCCC=CC=O | 5 |
| NC(=O)c1cn(CCO)nc1[N+](=O)[O-] | 5 |
| CC(=O)[C@H]1CC[C@H]2[C@@H]3C=CC4=CC(=O)CC[C@@]4(C)[C@@H]3CC[C@]12C | 5 |
| Cc1cc(CCCCCCCOc2ccc(C3=NCCO3)cc2)on1 | 5 |
| N[C@@H](C(=O)N[C@@H]1C(=O)N2C(C(=O)O)=C(Cl)CS[C@H]12)c1ccccc1 | 5 |
| CCCCCCCCC(C)C | 5 |
| O=S(=O)(O)c1ccc2c(ccc3nn(-c4ccc(C=Cc5ccc(-n6cncn6)cc5S(=O)(=O)O)c(S(=O)(=O)O)c4)nc32)c1 | 5 |
| Cc1cccc2ncc(C(=O)N3CCCC3)c(=O)n12 | 3 |
| Nc1ccc(C2(c3ccc(N)c(Cl)c3)c3ccccc3-c3ccccc32)cc1Cl | 5 |
| O=C(O)CCCCCCCC(=O)O | 5 |
| CC(=O)c1ccc2c(c1)OC(C)C(=O)N2C (stereo not given) | 5 |
| CCCCCCCCC(C)C=O (stereo not given) | 5 |
| CCOC(=O)Oc1c(OC)cc(C(=O)O[C@@H]2C[C@@H]3CN4CCc5c([nH]c6cc(OC)ccc56)[C@H]4C[C@@H]3[C@H](C(=O)OC)[C@H]2OC)cc1OC | 5 |

Source: the CATMoS acute toxicity set (Mansouri et al. 2021)
